Results as given in patent publication US11666577B2 (National Institute of Biological Sciences, Beijing, priority 2018, dated 2023).

test system: HT-29 cells; test: Necroptosis assay (TNF-α/Smac mimetic/z-VAD, TSZ-induced) in HT-29 cells; assay type: cell-based, human; details: Homo sapiens; Series 1 (Table 1) compounds 1-146; HT-29 cells, TNF-α/Smac mimetic/z-VAD, 24 hrs, cell viability by ATP level; read-out: Series 1 compound necroptosis activity
Method: Methods: HT-29 cells were cultured in McCoy's 5 A culture medium (Invitrogen). On day one, HT-29 cells were plated in 96-well assay plates at density of 2,500-3,500 cells per well. On day two, necrosis were induced by adding 20 ng/ml TNF-α (T), 100 nM Smac mimetic (S), and […] z-VAD (Z). At the same time, 10 mM compound from a chemical library of ˜200,000 compounds was delivered into each well. After 24 hrs treatment, cell viability was determined by measuring ATP level using the Cell Titer-Glo Luminescent Cell Viability Assay kit. A CellTiter-Glo Assay (Promega) was performed according to the manufacturer's instructions. Luminescence was recorded with a PerkinElmer EnSpire Multimode Plate Reader. Survived cells were normalized to those cells treated with DMSO. RIPA-56 was used as a positive control for screening necroptosis inhibitors. Data are represented as mean±standard deviation of duplicates.
In previous work, we performed a cell-based high-throughput screen to identify necroptosis inhibitors using a chemical library of ˜200,000 compounds and identified multiple compounds that protected human colorectal adenocarcinoma (HT-29) cells from TNF-α/Smac mimetic/Z-VAD-fmk (TSZ)-induced necroptosis.^[4]
The anti-necroptosis potency of compounds 7-12 and 14-18 was evaluated in the HT-29 cell line; the EC50 values are shown in Table B.
[a] Necroptosis was induced in HT-29 cells for 24 h; the EC50 values given here are the mean values of at least three independent analyses.

Row | SMILES | EC50 [µM]
1 | Cn1c(=O)c2c(nc(S(C)(=O)=O)n2C)n(CC2CC2)c1=O [Compound 102, 3-(cyclopropylmethyl)-1,7-dimethyl-8-(methylsulfonyl)-1H-purine-2,6(3H,7H)-dione] | 1 to 100
2 | C#CCn1c(=O)n(C)c(=O)c2c1nc(S(C)(=O)=O)n2C [Compound 106, 1,7-dimethyl-8-(methylsulfonyl)-3-(prop-2-ynyl)-1H-purine-2,6(3H,7H)-dione] | 1 to 10
3 | Cn1c(=O)c2c(nc(S(=O)(=O)CC3CC3)n2C)n(C)c1=O [Compound 13, 8-(cyclopropylmethylsulfonyl)-1,3,7-trimethyl-1H-purine-2,6(3H,7H)-dione] | 1 to 100
4 | CCn1c(=O)n(C)c(=O)c2c1nc(S(C)(=O)=O)n2C [Compound 100, 3-ethyl-1,7-dimethyl-8-(methylsulfonyl)-1H-purine-2,6(3H,7H)-dione] | 1 to 100
5 | Cn1c(=O)c2c(nc(S(=O)(=O)Cc3cc(Cl)cc(Cl)c3)n2C)n(C)c1=O [Compound 56, 8-(3,5-dichlorobenzylsulfonyl)-1,3,7-trimethyl-1H-purine-2,6(3H,7H)-dione] | 1 to 100
6 | Cn1c(=O)c2c(nc(S(=O)(=O)CC3CC3)n2C)n(Cc2cccc(Br)c2)c1=O [Compound 140, 3-(3-bromobenzyl)-8-((cyclopropylmethyl)sulfonyl)-1,7-dimethyl-1H-purine-2,6(3H,7H)-dione] | 1 to 100
7 | Cn1c(=O)c2c(nc(S(=O)(=O)CC3CC3)n2C)n(Cc2ccccc2F)c1=O [Compound 133, 8-((cyclopropylmethyl)sulfonyl)-3-(2-fluorobenzyl)-1,7-dimethyl-1H-purine-2,6(3H,7H)-dione] | 1 to 100
8 | Cn1c(=O)c2c(nc(S(=O)(=O)CC3CC3)n2C)n(Cc2ccccc2Cl)c1=O [Compound 136, 3-(2-chlorobenzyl)-8-((cyclopropylmethyl)sulfonyl)-1,7-dimethyl-1H-purine-2,6(3H,7H)-dione] | 1 to 100
9 | Cn1c(=O)c2c(nc(S(=O)(=O)CC3CC3)n2C)n(Cc2cccc(F)c2)c1=O [Compound 134, 8-((cyclopropylmethyl)sulfonyl)-3-(3-fluorobenzyl)-1,7-dimethyl-1H-purine-2,6(3H,7H)-dione] | 1 to 100

same assay, conditions: Homo sapiens; Series 2 (Table 2) compounds; HT-29 necroptosis assay; read-out: Series 2 compound necroptosis activity

Row | SMILES | EC50 [µM]
10 | Cn1c(=O)c2c(nc(S(=O)(=O)CC3CC3)n2C)n(CC#Cc2cc(NC(=O)C3CC3)cc(NC(=O)C3CC3)c2)c1=O [Compound 30] | 0.001 to 0.1
11 | Cn1c(=O)c2c(nc([S+](C)[O-])n2C)n(CC#Cc2cc(NC(=O)C3CC3)cc(C(F)(F)F)c2)c1=O (stereo not drawn) [Compound 49] | > 10
12 | CC(C)Nc1cc(C#CCn2c(=O)n(C)c(=O)c3c2nc(S(=O)(=O)CC2CC2)n3C)ccn1 [Compound 35] | 0.001 to 0.1
13 | Cn1c(=O)c2c(nc([S+](C)[O-])n2C)n(CC#Cc2cccc(O)c2)c1=O (stereo not drawn) [Compound 8] | 0.001 to 0.1
14 | Cn1c(=O)c2c(nc(S(=O)(=O)CC3CC3)n2C)n(CC#Cc2ccnc(NC(=O)C3CC3)c2)c1=O [Compound 31] | 0.001 to 0.1
15 | Cn1c(=O)c2c(nc(S(C)(=O)=O)n2C)n(CC#Cc2ccnc(N)n2)c1=O [Compound 24] | 0.001 to 0.1
16 | COCC(=O)Nc1cc(C#CCn2c(=O)n(C)c(=O)c3c2nc(S(C)(=O)=O)n3C)cc(NC(=O)C2CC2)c1 [Compound 38] | 0.001 to 0.1
17 | Cn1c(=O)c2c(nc(S(C)(=O)=O)n2C)n(CC#Cc2cccc(NC(=O)c3ccccc3)c2)c1=O [Compound 11] | 0.001 to 0.1
18 | CN(C)CCOc1cc(C#CCn2c(=O)n(C)c(=O)c3c2nc(S(C)(=O)=O)n3C)cc(NC(=O)C2CC2)c1 [Compound 42] | 0.001 to 0.1
19 | Cn1c(=O)c2c(nc([S+](C)[O-])n2C)n(CC#Cc2cc(NC(=O)C3CC3)nc(C(F)(F)F)c2)c1=O (stereo not drawn) [Compound 48] | 0.1 to 10
20 | Cn1c(=O)c2c(nc(S(=O)(=O)CC3CC3)n2C)n(CC#Cc2cc(NC(=O)CN3CCOCC3)cc(NC(=O)CN3CCOCC3)c2)c1=O [Compound 28] | 0.001 to 0.1

same assay, conditions: Series 1 (Table 1) compounds 1-146; HT-29 cells, TNF-α/Smac mimetic/z-VAD, 24 hrs, cell viability by ATP level; read-out: Series 1 compound necroptosis activity

Row | SMILES | EC50 [µM]
21 | Cn1c(S(C)(=O)=O)nc2c1c(=O)[nH]c(=O)n2C [Compound 88, 3,7-dimethyl-8-(methylsulfonyl)-1H-purine-2,6(3H,7H)-dione] | 1 to 1000
22 | Cn1c(=O)c2c(nc(S(=O)(=O)Cc3cccc(C4(C(F)(F)F)N=N4)c3)n2C)n(C)c1=O [Compound 40, 1,3,7-trimethyl-8-(3-(3-(trifluoromethyl)-3H-diazirin-3-yl)benzylsulfonyl)-1H-purine-2,6(3H,7H)-dione] | 1 to 1000
23 | Cn1c(=O)c2c(nc(S(=O)(=O)Cc3ccc(F)cc3)n2C)n(C)c1=O [Compound 28, 8-(4-fluorobenzylsulfonyl)-1,3,7-trimethyl-1H-purine-2,6(3H,7H)-dione] | 1 to 1000
24 | Cn1c(=O)c2c(nc(S(=O)(=O)Cc3ccccc3C(N)=O)n2C)n(C)c1=O [Compound 45, 2-((1,3,7-trimethyl-2,6-dioxo-2,3,6,7-tetrahydro-1H-purin-8-ylsulfonyl)methyl)benzamide] | 1 to 1000
25 | CCn1c([S+]([O-])CC)nc2c1c(=O)n(C)c(=O)n2C (stereo not drawn) [Compound 76, 7-ethyl-8-(ethylsulfinyl)-1,3-dimethyl-1H-purine-2,6(3H,7H)-dione] | 1 to 1000
26 | Cn1c(=O)c2c(nc(S(=O)(=O)Cc3ccccn3)n2C)n(C)c1=O [Compound 48, 1,3,7-trimethyl-8-(pyridin-2-ylmethylsulfonyl)-1H-purine-2,6(3H,7H)-dione] | 1 to 1000
27 | Cn1c(=O)c2c(nc(S(=O)(=O)Cc3cc[n+]([O-])cc3)n2C)n(C)c1=O [Compound 53, 4-((1,3,7-trimethyl-2,6-dioxo-2,3,6,7-tetrahydro-1H-purin-8-ylsulfonyl)methyl)pyridine 1-oxide] | 1 to 1000
28 | Cn1c(=O)c2c(nc(S(C)(=O)=O)n2CC(N)=O)n(C)c1=O [Compound 86, 2-(1,3-dimethyl-8-(methylsulfonyl)-2,6-dioxo-2,3-dihydro-1H-purin-7(6H)-yl)acetamide] | 1 to 1000
29 | Cn1c(S(C)(=O)=O)nc2c1c(=O)n(CC1CC1)c(=O)n2C [Compound 91, 1-(cyclopropylmethyl)-3,7-dimethyl-8-(methylsulfonyl)-1H-purine-2,6(3H,7H)-dione] | 1 to 1000
30 | Cn1c(=O)c2c(nc(S(=O)(=O)Cc3cccc(Cl)c3)n2C)n(C)c1=O [Compound 30, 8-(3-chlorobenzylsulfonyl)-1,3,7-trimethyl-1H-purine-2,6(3H,7H)-dione] | 1 to 1000
31 | CCn1c(S(=O)(=O)CC)nc2c1c(=O)n(C)c(=O)n2C [Compound 77, 7-ethyl-8-(ethylsulfonyl)-1,3-dimethyl-1H-purine-2,6(3H,7H)-dione] | 1 to 1000
32 | CCSc1nc2c(c(=O)n(C)c(=O)n2C)n1CC [Compound 75, 7-ethyl-8-(ethylthio)-1,3-dimethyl-1H-purine-2,6(3H,7H)-dione] | 1 to 1000
33 | Cn1c(=O)c2c(nc(S(=O)(=O)Cc3ccccc3C#N)n2C)n(C)c1=O [Compound 42, 2-((1,3,7-trimethyl-2,6-dioxo-2,3,6,7-tetrahydro-1H-purin-8-ylsulfonyl)methyl)benzonitrile] | 1 to 1000
34 | CCCOc1ccc(OC)c(CS(=O)(=O)c2nc3c(c(=O)n(C)c(=O)n3C)n2C)c1 [Compound 68, 8-(2-methoxy-5-propoxybenzylsulfonyl)-1,3,7-trimethyl-1H-purine-2,6(3H,7H)-dione] | 1 to 1000
35 | COc1cccc(OC)c1CS(=O)(=O)c1nc2c(c(=O)n(C)c(=O)n2C)n1C [Compound 62, 8-(2,6-dimethoxybenzylsulfonyl)-1,3,7-trimethyl-1H-purine-2,6(3H,7H)-dione] | 1 to 1000
36 | CCC[S+]([O-])c1nc2c(c(=O)n(C)c(=O)n2C)n1C (stereo not drawn) [Compound 9, 1,3,7-trimethyl-8-(propylsulfinyl)-1H-purine-2,6(3H,7H)-dione] | 1 to 1000
37 | COc1cccc(CS(=O)(=O)c2nc3c(c(=O)n(C)c(=O)n3C)n2C)c1 [Compound 36, 8-(3-methoxybenzylsulfonyl)-1,3,7-trimethyl-1H-purine-2,6(3H,7H)-dione] | 1 to 1000

same assay, conditions: Series 1 (Table 1) compounds 147-176; activity extrapolated; read-out: Series 1 compound necroptosis activity (extrapolated)

Row | SMILES | EC50 [µM]
38 | Cn1c(=O)c2c(nc(S(=O)(=O)CCc3ccccc3)n2C)n(CC#Cc2ccc3nc[nH]c3c2)c1=O [Compound 164] | 1 to 1000
39 | Cn1c(=O)c2c(nc(S(=O)(=O)CC3CC3)n2C)n(Cc2cn(/C=C/CN)nn2)c1=O [Compound 172] | 1 to 1000
40 | C=CC(=O)Nc1cccc(C#CCn2c(=O)n(C)c(=O)c3c2nc(S(=O)(=O)CCO)n3C)c1 [Compound 159] | 1 to 1000
41 | Cn1c(=O)c2c(nc(S(C)(=O)=O)n2C)n(CC#Cc2cccc(NCc3ccccc3)c2)c1=O [Compound 166] | 1 to 1000

same assay, conditions: Series 1 (Table 1) compounds; HT-29 cells, TNF-α/Smac mimetic/z-VAD, 24 hrs, cell viability by ATP level; read-out: Series 1 compound necroptosis activity

Row | SMILES | EC50 [µM]
42 | Cn1c(=O)c2c(nc(S(=O)(=O)CC3CC3)n2C)n(CC#Cc2cccc([N+](=O)[O-])c2)c1=O [Compound 125, 8-((cyclopropylmethyl)sulfonyl)-1,7-dimethyl-3-(3-(3-nitrophenyl)prop-2-yn-1-yl)-3,7-dihydro-1H-purine-2,6-dione] | 0.001 to 1
